Measured values taken from patent US9771369B2, “Compounds and methods for kinase modulation, and indications therefor” (Plexxikon Inc., priority 2014, dated 2017).

Columns and labels:
[1] = biological target: c-kit mutant D816V (Homo sapiens (Human), UniProt P10721, D816V/DEL694-753); assay: c-Kit mutant D816V biochemical assay (AlphaScreen kinase activity)
Outline: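 Recombinant His-tagged c-Kit D816V kinase domain (residues 551-934, insert 694-753 deleted, E. coli-expressed) phosphorylating 30 nM biotin-(E4Y)10 with 10 μM ATP, HEPES pH 7.2, Mg/Mn, 5% DMSO; 30 min, room temperature. Phosphorylation detected by AlphaScreen (streptavidin donor/PY30 acceptor beads); IC50 from 8-point 1:3 series.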

[2] = tested on: BaF3-FL KIT D816V or BaF3-FL KIT V560G/D816V cell line; assay: Cell-based assays of c-Kit mutant kinase activity (cell proliferation, ATPlite); settings: at least one of the c-kit cell assays of Example 7
Outline: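 BaF3 cells dependent on transfected full-length human KIT D816V or V560G/D816V (pCI-Neo, CMV promoter) were seeded at 1×10^4 cells/well and exposed to 8-point 1:3 dilutions from 10 μM top (0.2% DMSO) for three days at 37° C. ATPlite luminescence gave cell number; IC50 from concentration-response.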

Sequence of c-kit mutant D816V (P10721 other isoform, or with tags, fused parts or gaps D816V/del 694-753): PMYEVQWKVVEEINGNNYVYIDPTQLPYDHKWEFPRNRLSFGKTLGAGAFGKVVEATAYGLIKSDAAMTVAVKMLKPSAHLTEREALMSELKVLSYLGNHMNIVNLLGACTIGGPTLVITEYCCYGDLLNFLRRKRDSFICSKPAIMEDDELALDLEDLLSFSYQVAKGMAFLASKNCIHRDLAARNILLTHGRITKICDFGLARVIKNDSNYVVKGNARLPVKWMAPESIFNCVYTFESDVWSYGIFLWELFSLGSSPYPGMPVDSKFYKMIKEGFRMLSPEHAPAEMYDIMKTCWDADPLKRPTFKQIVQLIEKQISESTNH

| Structure (SMILES) | IC50 [1] | IC50 [2] |
| --- | --- | --- |
| CCOc1ccc(-c2[nH]c(C3(C)CCN(c4ncnc5[nH]c(-c6cnn(C(F)F)c6)cc45)CC3)nc2C)cc1C [P-3245, 6-[1-(difluoromethyl)pyrazol-4-yl]-4-[4-[5-(4-ethoxy-3-methyl-phenyl)-4-methyl-1H-imidazol-2-yl]-4-methyl-1-piperidyl]-7H-pyrrolo[2,3-d]pyrimidine] | 0.0001 to 1 µM | < 10000 nM |
| CNC(=O)c1ccc(-c2cc3c(N4CCC(C)(c5nc(C)c(-c6ccc(OC(F)F)cc6)[nH]5)CC4)ncnc3[nH]2)cn1 [P-3246, 5-[4-[4-[5-[4-(difluoromethoxy)phenyl]-4-methyl-1H-imidazol-2-yl]-4-methyl-1-piperidyl]-7H-pyrrolo[2,3-d]pyrimidin-6-yl]-N-methyl-pyridine-2-carb oxamide] | 0.0001 to 1 µM | < 10000 nM |
| CCOc1ccc(-c2[nH]c(C3(C)CCN(c4ncnc5[nH]c(-c6ccc(C(=O)NC)nc6)cc45)CC3)nc2C)cc1C [P-3247, 5-[4-[4-[5-(4-ethoxy-3-methyl-phenyl)-4-methyl-1H-imidazol-2-yl]-4-methyl-1-piperidyl]-7H-pyrrolo[2,3-d]pyrimidin-6-yl]-N-methyl-pyridine-2-carb oxamide] | 0.0001 to 1 µM | < 10000 nM |
| Cc1nc(C2(C)CCN(c3ncnc4[nH]c(-c5ccc(N6CCOCC6)nc5)cc34)CC2)[nH]c1-c1ccc(OC(F)F)cc1 [P-3248, 4-[5-[4-[4-[5-[4-(difluoromethoxy)phenyl]-4-methyl-1H-imidazol-2-yl]-4-methyl-1-piperidyl]-7H-pyrrolo[2,3-d]pyrimidin-6-yl]-2-pyridyl]morpholine] | 0.0001 to 1 µM | < 10000 nM |
| CCOc1ccc(-c2[nH]c(C3(C)CCN(c4ncnc5[nH]c(-c6ccc(N7CCOCC7)nc6)cc45)CC3)nc2C)cc1C [P-3249, 4-[5-[4-[4-[5-(4-ethoxy-3-methyl-phenyl)-4-methyl-1H-imidazol-2-yl]-4-methyl-1-piperidyl]-7H-pyrrolo[2,3-d]pyrimidin-6-yl]-2-pyridyl]morpholine] | 0.0001 to 1 µM | < 10000 nM |
